US5049372A, “Anticancer activities in a host by increasing blood and plasma adenosine 5'-triphosphate (ATP) levels” (priority 1988, dated 1991)

What was measured:
[1] = Host toxicity (deaths, body weight) in treated mice; type: in vivo, mouse; settings: for Deaths: i.p. injections of adenine nucleotides
Description: Tumor cells are removed from subconfluent cultures by a mild trypsin-EDTA treatment, the cell pellet is washed once with MEM without serum and the cells are suspended at the desired cell numbers in PBS (phosphate-bufferedsaline, 8 g NaCl, 0.2 g KCl, 1.15 g Na2 HPO4.7H2 O, and 0.2 g KH2 PO4 per liter). Cell suspensions are shown to be at least 90% viable by trypan blue exclusion. Mice are injected subcutaneously in the right hind footpad with tumor cells suspended in 50 μl of PBS. The regular protocol (unless otherwise stated) consists of daily i.p. injections of 1 ml of 0.85% NaCl solution or 1 ml of 50 mM of AMP, ADP, or ATP in 0.85% NaCl (from stock solutions adjusted to pH 6.2) starting one day after tumor inoculation and given for ten consecutive days.
Injections are administered with 30 gauge needles and the mice are lightly anesthetized with ether. The mice are weighed before the start of treatment and once a week during and after treatment. After the tumors become palpable, tumor sizes are determined every three days. The animals are sacrificed, tumors are excised and weighed before they reach 10% of the animals' weight.

[2] = system: CT26 colon adenocarcinoma; assay: Growth inhibition of footpad CT26 colon adenocarcinoma in CB6F1 mice, second series (FIGS. 2 and 3); type: in vivo, mouse; settings: for Inhibition of tumor growth, schedule ending before inoculation: 12 consecutive days, ending one day before tumor inoculation; for Anticancer activities against established footpad CT26 colon adenocarcinoma: CB6F1 mice, in words; for Deaths before stated day after tumor inoculation: FIG. 2 experiment, palpable CT26 tumors, 10 animals per group; for Inhibition of growth of palpable CT26 tumors (in words): daily i.p. in 2.2 ml saline, pH 6.2, 12 days, starting after tumors palpable, equimolar amounts
Description: A further series of tests are conducted whereby tumors are inoculated by injections of 2.5×10^5 CT26 cells (over 90% viability) in 50 μl of phosphate-buffered saline into the right hind footpad of CB6F1 mice. The treatments were initiated at a variety of times after inoculation of the tumors. The injection schedules started either 1 or 5 days after tumor inoculation when none of the tumors are palpable or when the tumors are clearly palpable (average calculated weight of 100 mg), which occur in 100% of the inoculated mice after 8-11 days. Mice are randomized, divided into groups, and injected daily with 2.2 ml of saline, adenosine, AMP, or ATP (compounds are in sterile saline solutions at concentrations of 25 mM with AMP and ATP solutions adjusted to pH 6.2). Injections are administered intraperitoneally with 30 gauge needles and the mice are lightly anesthetized with […]. The mice are weighed and tumor sizes measured before the start of the treatment schedule and every three days during and after the treatment schedule. These determinations are performed before injections during the treatment period.
In particular, see FIG. 2. FIG. 2 illustrates inhibition of tumor growth (---) and host weight loss (-) in tumor-bearing mice by treatment with adenine nucleotides. Mice (CB6F1, 8 week old males) bearing palpable CT26 footpad tumors (on day 9 after tumor inoculation) are treated with saline (.smallcircle.), adenosine (o), AMP (Δ), or ATP (.quadrature.) as described herein. An untreated group is also included (x). Arrows indicate days of injection.
The magnitude of the antitumor activities of AMP and ATP depends to a small extent on the pH of the solution administered intraperitoneally. This property is probably related to the number of negative charges on the phosphate groups (the pKa of the secondary phosphate is around 6.6). AMP and especially ATP have some buffering capacity, and at a pH below 6.6 they carry a smaller net charge than at a physiological pH. The lower charge of these molecules enhances the initial (first hour) transport of AMP and ATP across the peritoneal membrane and into the systemic circulation (see Torres, et al., 1978, Pharmacol., 17, 330-340). […] The treatment schedule of palpable CT26 tumors which is illustrated in FIG. 2 consistently yields 10-20% of "cures". These mice remain tumor-free for at least two months.
FIG. 3 further illustrates inhibition of host weight loss in tumor-bearing animals by treatment with adenine nucleotides. Mice (CB6F1, males, 7 weeks old, in A, 10 weeks old in B, […]) with saline (.smallcircle.), adenosine (o), AMP (Δ), or ATP (.quadrature.) are initiated 1 day (A), 5 days (B), or 9 days after tumor inoculation (when all the tumors were palpable) (C). Arrows indicate days of injection. Experimental procedures were outlined in the text.

[3] = Rate of extracellular ATP degradation by mouse blood in vitro (Table 6); type: in vitro ADME; settings: 1 mM, 37° C.
Description: (§1) *Blood (450 μl) was withdrawn into a syringe containing either 50 μ
(§2) of citratedextrose or 50 μl of heparin (100 U/ml). Whole blood was the
(§3) added to 1 mM of [^3 H]ATP in saline (25 μl) and at various time
(§4) points blood aliquots (90 μl) were removed and centrifuged. Plasma (20
(§5) μl) was withdrawn and added to 1 ml of icecold trichloroacetic acid.
(§6) Thin layer chromatography on poly(ethylene)imine cellulose was performed
(§7) according to published procedures. The rate of degradation of 1 mM of
(§8) [^3 H]ATP was linear for mouse or human blood during the initial 30
(§9) minute incubation at 37° C.

[4] = Rate of extracellular ATP degradation by human blood in vitro (Table 6); type: in vitro ADME; settings: 1 mM, 37° C.
Description: as §1, §2, §3, §4, §5, §6, §7, §8, §9

human subjects = settings: slow injections or infusions of the same dose (40 mg); cited from earlier work

Row | SMILES | Side-effects relative to ATP ([1]; host animals) | Deaths [1] | Inhibition of tumor growth, schedule ending before inoculation [2] | Anticancer activities against established footpad CT26 colon adenocarcinoma [2] | Deaths before stated day after tumor inoculation [2] | Inhibition of growth of palpable CT26 tumors (in words) [2] | Inhibition of tumor growth relative to ATP ([2]; treatment initiated one day after tumor inoculation) | Rate of extracellular ATP degradation ([3]; citrate) [pmol/µL/min] | Rate of extracellular ATP degradation ([3]; heparin) [pmol/µL/min] | Rate of extracellular ATP degradation ([4]; citrate) [pmol/µL/min] | Rate of extracellular ATP degradation ([4]; heparin) [pmol/µL/min] | Response to slow injection or infusion in human subjects (human subjects) | Inhibition of tumor growth, palpable tumors, relative to AMP ([2]; applied to palpable tumors (FIG. 2))
1 | Nc1ncnc2c1ncn2[C@@H]1O[C@H](COP(=O)(O)O)[C@@H](O)[C@H]1O [AMP, adenosine 5'-monophosphate] | less side-effects than ATP | did not cause any deaths | No inhibition of tumor growth | exhibit significant anticancer activities | No deaths occurred before day 22 | significantly inhibit the growth of this fast-growing tumor | as effective as ATP in inhibiting tumor growth | – | – | – | – | – | –
2 | Nc1ncnc2c1ncn2[C@@H]1O[C@H](COP(=O)(O)OP(=O)(O)OP(=O)(O)O)[C@@H](O)[C@H]1O [ATP, adenosine 5'-triphosphate] | – | Occasionally, an animal treated with ATP or ADP would die a few hours after injection | No inhibition of tumor growth | exhibit significant anticancer activities | No deaths occurred before day 22 | significantly inhibit the growth of this fast-growing tumor | – | 6.87 | 10.21 | 1.75 | 4.07 | much lesser or no response at all | more pronounced than that obtained with AMP
